Tests used:
[1] = tested on: epimastigote stage of T. cruzi; assay: Antiparasitic activity, alamarBlue, epimastigotes; assay type: cell-based, Trypanosoma cruzi; details: for IC50: 72 h, epimastigote stage of T. cruzi (Y strain), alamarBlue, mean ± SD, NA: not active; for Selectivity index (SI): ratio of CC50 for J774A.1 and IC50 for epimastigotes of T. cruzi
Protocol: Epimastigotes of Trypanosoma cruzi (Y strain) were used in this study and cultured in liver infusion tryptose (LIT) medium supplemented with 10% of foetal bovine serum (FBS) at 26 °C.
In a sterile 96-well plate, a serial dilution of acrylonitriles was carried out in LIT medium supplemented with 10% FBS with a final volume of 100 µL. Parasites were added to wells to reach a concentration of 10^5 parasites per well. Finally, a 10% of alamarBlue Cell Viability Reagent® (ThermoFisher Scientific, Waltham, MA, USA) was added into each well, and the plate was incubated for 72 h at 26°C.

[2] = Cytotoxicity, alamarBlue, murine macrophages; assay type: cell-based; details: mouse, J774A.1 murine macrophage cell line, J774A.1 murine macrophages, mean ± SD
Protocol: (§1) The cytotoxicity was evaluated against murine macrophages (J774A.1) using the same method mentioned in the antiparasitic assay, based on the alamarBlue Cell Viability Reagent®. In a sterile 96-well plate, 10^4 cells per well were added, then, after the complete adhesion, serial dilutions of the 32 compounds, using a deep well plate, and a 10% of alamarBlue® were joined.

[3] = tested on: epimastigotes of Trypanosoma cruzi; assay: Chromatin condensation analysis (Hoechst 33342/propidium iodide); assay type: cell-based; details: 24 h with the IC90, Figure 1
Protocol: Vybrant® Apoptosis Assay Kit n°5, Hoechst 33342/Propidium Iodide (ThermoFisher Scientific, MA, USA) was used to determinate the chromatin condensation of the treated parasites. […] Thereafter, Hoechst (5 µg/mL) and propidium iodide (PI) (1 µg/mL) were added and incubated for 20 min at 26 °C. The EVOS® FL Cell Imaging System (ThermoFisher Scientific, MA, USA) was used to capture the fluorescence images, using the DAPI (Hoechst) and RFP (PI) light cubes.

[4] = tested on: epimastigotes of Trypanosoma cruzi; assay: ATP level analysis (CellTiter-Glo); assay type: cell-based; details: 24 h with the IC90, CellTiter-Glo, Figure 3
Protocol: Variations in the level of ATP were measured with the CellTiter-Glo® Luminescent Cell Viability Assay (Promega, WI, USA). […] Then, in a white 96-well plate, the epimastigotes were resuspended in 25µL of culture media and mixed with 25 µL of the kit. After 10 min of incubation at room temperature, the luminescence was measured using an EnSpire Multimode Plate Reader® (PerkinElmer). The results were expressed in percentage of production of ATP level relative to the negative control (without any treatment).

[5] = tested on: epimastigotes of Trypanosoma cruzi; assay: Plasmatic membrane permeability analysis (SYTOX Green); assay type: cell-based; details: 24 h with the IC90, Figure 4
Protocol: The use of the dye SYTOX® Green reagent means that when the plasmatic permeability is altered, it is possible for the reagent to go inside the cells, joining the parasitic DNA and emitting an intense green fluorescence.
To determine the plasmatic membrane permeability, SYTOX® Green nucleic acid stain fluorescent dye (ThermoFisher Scientific, MA, USA) was used. […] The pellet was resuspended in a 50 µL staining buffer and the Sytox® Green at 1 µM (final concentration). After 15 min of incubation at room temperature, parasites were analyzed. Fluorescence pictures were taken with the EVOS® FL Cell Imaging System (ThermoFisher Scientific, MA, USA).

[6] = tested on: epimastigotes of Trypanosoma cruzi; assay: Reactive oxygen species analysis (CellROX Deep Red); assay type: cell-based; details: 24 h with the IC90, Figure 5
Protocol: The CellROX® reagent emits red fluorescence in the presence of reactive oxygen species.
The oxidative stress was measured with the CellROX® Deep Red Reagent (ThermoFisher Scientific, MA, USA). […] Finally, the fluorescence was analyzed using the EVOS® FL Cell Imaging System (ThermoFisher Scientific, MA, USA) with the Cy5 light cube.

Trypanosoma cruzi = assay: Programmed cell death study (overall conclusion from the PCD assays); assay type: cell-based; details: overall conclusion from ROS, mitochondrial potential, ATP and chromatin condensation assays
Protocol: Different assays were performed to elucidate which pathways could be triggered by these acrylonitriles. The most probable cellular process induced by our compounds is the apoptosis or programmed cell death (PCD), in which the inflammatory response is weakly activated, in contrast to a necrotic event, where the inflammatory response is strong.

[7] = tested on: J774A.1 murine macrophage cell line; assay: Cytotoxicity, alamarBlue, murine macrophages; assay type: cell-based; details: J774A.1 murine macrophages, 24 h, mean ± SD
Protocol: as §1

[8] = tested on: epimastigotes of Trypanosoma cruzi; assay: Mitochondrial membrane potential analysis (JC-1); assay type: cell-based; details: 24 h with the IC90, JC-1, Tukey test, Figure 2
Protocol: The detection of variations in the mitochondrial membrane potential was evaluated with the JC-1 Mitochondrial Membrane Potential Assay Kit® (Cayman Chemical, Ann Arbor, MI, USA). In a 24-well plate, 500 µL of epimastigotes at 10^6 parasites per ml were added with the inhibitory concentration 90 (IC90) of the compounds. After 24 h of incubation at 26 °C, the epimastigotes were centrifuged (3000 rpm, 10 min, 4 °C), resuspended in 50µL of JC-1 buffer and added to a black 96-well plate with 5 µL of JC-1. After 30 min of incubation at 26 °C, the green and red fluorescence were measured using an EnSpire Multimode Plate Reader® (PerkinElmer). Results were expressed in percentage relative to negative control (without treatment) of the ratio 595/535 nm (J-aggregates/J-monomers).

Row | SMILES | IC50 ([1]; Trypanosoma cruzi) | CC50 at 24 h [2] | Dead cells (propidium iodide red fluorescence) [3] | Percentage of ATP level relative to untreated control [4] | Plasma membrane permeability (SYTOX Green fluorescence) [5] | Reactive oxygen species (CellROX Deep Red fluorescence) [6] | Induction of programmed cell death (apoptosis-like process) (Trypanosoma cruzi) | IC50 [1] | Selectivity index (SI) [1] | CC50 [7] | Chromatin condensation (Hoechst 33342 blue fluorescence) [3] | Variations in the mitochondrial membrane potential relative to negative control [8]
1 | CON(C)C(=O)/C=C/C#N [Compound Q27, (E)-3-Cyano-N-methoxy-N-methylacrylamide] | 291 ± 47 µM | 480 ± 29.1 µM | red fluorescence, indicating already dead cells | < 1% | more remarkable | less intense fluorescence | robust evidence of inducing all the physiological features of an apoptosis-like process |  |  |  |  | 
2 | N#CC=CC(=O)N1C(=O)OC[C@H]1c1ccccc1 [Compound Q31, (E)-(R,E)-4-Oxo-4-(2-oxo-4-phenyloxazolidin-3-yl)but-2-enenitrile] |  |  |  |  |  |  |  | 20.38 ± 0.13 µM | 0.51 | 10.4 ± 1.06 µM |  | 
3 | N#CC=CC(=O)N1C(=O)OC[C@H]1c1ccccc1 [Compound Q32, (Z)-(R,Z)-4-Oxo-4-(2-oxo-4-phenyloxazolidin-3-yl)but-2-enenitrile] |  |  |  |  |  |  |  |  | 0.78 | 2.89 ± 0.74 µM |  | 
4 | CN(C(=O)/C=C/C#N)c1ccccc1 [Compound Q29, (E)-3-Cyano-N-methyl-N-phenylacrylamide] | 138 ± 14 µM | 327.9 ± 2.85 µM | red fluorescence, indicating already dead cells | < 1% | more remarkable | less intense fluorescence | robust evidence of inducing all the physiological features of an apoptosis-like process |  |  |  | intense blue fluorescence in the nucleus, indicating chromatin condensation | 
5 | O=C(Cn1ccnc1[N+](=O)[O-])NCc1ccccc1 [BENZ, benznidazole, reference compound] |  | > 1500 µM |  | 18.26% |  |  |  |  |  |  |  | decreasing the inter-membrane potential of the mitochondria
